Some results are limits rather than exact numbers.

In test [1] the target is Phosphatidylinositol 4,5-bisphosphate 3-kinase catalytic subunit beta isoform (Homo sapiens, UniProt P42338). Briefly: Inhibition of human recombinant PI3K p110beta expressed in Sf21 insect cells using phosphatidylinositol as substrate after 1 hr by phosphoimaging.
Test [2] in a line: cells. Particulars: Homo sapiens, NZOV9.
Test [3] in a line: cells. Particulars: Homo sapiens, NZB5.
Test [4] concerns the target Phosphatidylinositol 4,5-bisphosphate 3-kinase catalytic subunit alpha isoform (Mus musculus, UniProt P42337). In words: Inhibition of mouse recombinant PI3K p110alpha expressed in Sf21 insect cells using phosphatidylinositol as substrate after 1 hr by phosphoimaging.
Test [5] can be described thus: Inhibition of bovine recombinant PI3K p110delta expressed in Sf21 insect cells using phosphatidylinositol as substrate after 1 hr by phosphoimaging. Set-up: species or system Bos taurus.

Phosphatidylinositol 4,5-bisphosphate 3-kinase catalytic subunit alpha isoform, sequence (P42337 whole entry, canonical isoform): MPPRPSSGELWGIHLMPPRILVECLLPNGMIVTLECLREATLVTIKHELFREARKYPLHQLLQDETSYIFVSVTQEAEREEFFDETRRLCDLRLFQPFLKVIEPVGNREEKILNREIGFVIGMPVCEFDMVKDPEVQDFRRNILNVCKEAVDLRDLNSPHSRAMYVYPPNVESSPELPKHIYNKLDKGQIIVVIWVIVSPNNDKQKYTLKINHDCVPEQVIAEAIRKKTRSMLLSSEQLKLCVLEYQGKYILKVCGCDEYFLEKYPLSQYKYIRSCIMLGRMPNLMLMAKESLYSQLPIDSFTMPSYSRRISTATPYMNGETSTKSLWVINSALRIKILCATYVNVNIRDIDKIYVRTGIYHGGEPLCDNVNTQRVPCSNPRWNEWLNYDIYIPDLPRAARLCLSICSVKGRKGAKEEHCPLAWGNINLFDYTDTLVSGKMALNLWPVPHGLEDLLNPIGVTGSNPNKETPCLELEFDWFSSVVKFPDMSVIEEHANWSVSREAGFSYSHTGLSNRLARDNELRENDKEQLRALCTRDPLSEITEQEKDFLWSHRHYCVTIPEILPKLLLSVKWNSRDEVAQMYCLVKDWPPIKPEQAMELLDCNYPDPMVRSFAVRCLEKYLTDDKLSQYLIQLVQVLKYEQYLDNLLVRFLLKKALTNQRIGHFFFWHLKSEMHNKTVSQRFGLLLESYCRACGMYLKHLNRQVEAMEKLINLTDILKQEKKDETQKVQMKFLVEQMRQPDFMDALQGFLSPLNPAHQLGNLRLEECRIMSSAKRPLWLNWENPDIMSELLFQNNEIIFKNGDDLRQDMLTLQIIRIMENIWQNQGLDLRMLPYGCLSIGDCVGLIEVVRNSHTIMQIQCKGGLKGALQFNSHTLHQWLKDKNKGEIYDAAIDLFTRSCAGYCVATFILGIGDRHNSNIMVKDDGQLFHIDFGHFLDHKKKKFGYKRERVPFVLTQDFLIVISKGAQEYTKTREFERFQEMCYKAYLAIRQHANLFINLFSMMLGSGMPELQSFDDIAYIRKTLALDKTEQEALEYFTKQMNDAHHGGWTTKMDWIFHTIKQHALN
Phosphatidylinositol 4,5-bisphosphate 3-kinase catalytic subunit beta isoform, sequence (P42338 whole entry, canonical isoform): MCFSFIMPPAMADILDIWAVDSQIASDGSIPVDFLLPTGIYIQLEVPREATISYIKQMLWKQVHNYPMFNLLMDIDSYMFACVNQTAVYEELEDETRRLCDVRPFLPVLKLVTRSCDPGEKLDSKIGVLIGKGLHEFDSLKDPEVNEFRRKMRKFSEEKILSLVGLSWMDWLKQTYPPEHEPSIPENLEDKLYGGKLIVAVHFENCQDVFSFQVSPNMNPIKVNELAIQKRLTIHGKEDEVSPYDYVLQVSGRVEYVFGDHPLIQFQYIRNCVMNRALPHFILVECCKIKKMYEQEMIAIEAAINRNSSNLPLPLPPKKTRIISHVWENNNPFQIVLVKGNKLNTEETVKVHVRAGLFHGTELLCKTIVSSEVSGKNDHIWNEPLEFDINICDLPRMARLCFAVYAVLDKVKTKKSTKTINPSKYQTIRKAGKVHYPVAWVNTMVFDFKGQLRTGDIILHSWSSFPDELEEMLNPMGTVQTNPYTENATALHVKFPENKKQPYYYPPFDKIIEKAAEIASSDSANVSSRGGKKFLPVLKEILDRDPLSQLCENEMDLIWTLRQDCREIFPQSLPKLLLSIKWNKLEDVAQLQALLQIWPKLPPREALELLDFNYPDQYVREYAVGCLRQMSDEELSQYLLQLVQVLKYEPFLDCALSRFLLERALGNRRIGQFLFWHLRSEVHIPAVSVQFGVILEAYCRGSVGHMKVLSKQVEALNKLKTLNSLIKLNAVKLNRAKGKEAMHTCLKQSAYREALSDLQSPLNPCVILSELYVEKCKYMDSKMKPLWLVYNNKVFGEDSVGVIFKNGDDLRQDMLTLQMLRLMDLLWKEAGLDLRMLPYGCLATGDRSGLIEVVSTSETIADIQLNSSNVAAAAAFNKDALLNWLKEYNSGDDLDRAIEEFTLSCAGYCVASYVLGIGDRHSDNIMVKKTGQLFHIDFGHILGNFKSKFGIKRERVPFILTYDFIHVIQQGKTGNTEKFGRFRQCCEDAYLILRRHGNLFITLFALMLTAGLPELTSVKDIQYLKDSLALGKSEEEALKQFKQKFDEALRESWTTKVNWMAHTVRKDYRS

On to `COc1cncc2c1nc(C(F)F)n2-c1nc(N2CCOCC2)nc(N2CCOCC2)n1`, for which the concentration for half-maximal inhibition (IC50) in test [1] came to 1030 nM; in “cells [2]” it was 2600 nM; in “cells [3]” it was 5600 nM; in test [4], 1290 nM; in test [5], 1600 nM.
The like results for `FC(F)(F)c1nc2ccccc2n1-c1nc(N2CCOCC2)nc(N2CCOCC2)n1` were, in that order, 461 nM, 700 nM, 900 nM, 202 nM and 70 nM.
The like results for `CN(C)c1cccc2c1nc(C(F)F)n2-c1nc(N2CCOCC2)nc(N2CCOCC2)n1` were, in that order, over 1000 nM, 2540 nM, 60 nM, 5400 nM and 539 nM.
For `COc1ccc2c(nc(C(F)F)n2-c2nc(N3CCOCC3)nc(N3CCOCC3)n2)c1OC` the same measures were 801 nM, 36 nM, 20 nM, 335 nM and 258 nM.
As for `FC(F)c1nc2ccccc2n1-c1cc(N2CCOCC2)nc(N2CCOCC2)n1`, the IC50 in test [1] was found to be 170 nM; in the test “cells [2]”, 300 nM; in test [4], 88 nM; in test [5], 13 nM.
Take `FC(F)c1nc2c3c(ccc2n1-c1nc(N2CCOCC2)nc(N2CCOCC2)n1)OCO3`: the IC50 in test [1] came to 47 nM; in “cells [2]” it was 40 nM; in the test “cells [3]”, 130 nM; in test [4], 550 nM; in test [5] it was 39 nM.
For `COC(=O)c1cccc2c1nc(C(F)F)n2-c1nc(N2CCOCC2)nc(N2CCOCC2)n1` the same measures were 310 nM, 470 nM, 2800 nM, 9.3 nM and 65 nM.
For `CSCc1nc2ccccc2n1-c1nc(N2CCOCC2)nc(N2CCOCC2)n1` the same measures were 39 nM, 86 nM, 83 nM, 170 nM and 41 nM.
For `CCCOc1cccc2c1nc(C(F)F)n2-c1nc(N2CCOCC2)nc(N2CCOCC2)n1` the same measures were 518 nM, 50 nM, 70 nM, 16 nM and 95 nM.
Consider `COc1cc(N(C)C)cc2c1nc(C(F)F)n2-c1nc(N2CCOCC2)nc(N2CCOCC2)n1`, for which the 50% inhibitory concentration (IC50) is 18.5 nM in test [1]; 150 nM in the test “cells [2]”; 130 nM in “cells [3]”; 8 nM in test [4]; 6.8 nM in test [5].
In the case of `FCc1nc2ccccc2n1-c1nc(N2CCOCC2)nc(N2CCOCC2)n1`, the half-maximal inhibitory concentration (IC50) in test [1] was determined as 53 nM; in “cells [2]” it was 350 nM; in the test “cells [3]” it was 390 nM; in test [4] it was 34 nM; in test [5], 13 nM.
For `COc1cc(OC)c2nc(C(F)F)n(-c3nc(N4CCOCC4)nc(N4CCOCC4)n3)c2c1`, the IC50 in test [1] was 118 nM; in “cells [2]”, 59 nM; in “cells [3]”, 95 nM; in test [4], 58 nM; in test [5], 12.5 nM.
In the case of `CNC(=O)c1cccc2c1nc(C(F)F)n2-c1nc(N2CCOCC2)nc(N2CCOCC2)n1`, the IC50 in test [1] was over 1000 nM; in “cells [2]”, 50 nM; in “cells [3]”, 480 nM; in test [4], 296 nM; in test [5], 1000 nM.
For `Cc1nc2ccccc2n1-c1nc(N2CCOCC2)nc(N2CCOCC2)n1` the same measures were 289 nM, 600 nM, 280 nM, 143 nM and 35 nM.
The like results for `N#Cc1cccc2c1nc(C(F)F)n2-c1nc(N2CCOCC2)nc(N2CCOCC2)n1` were, in that order, over 1000 nM, over 20000 nM, over 20000 nM, 61 nM and 66 nM.
The like results for `c1ccc2c(c1)ncn2-c1nc(N2CCOCC2)nc(N2CCOCC2)n1` were, in that order, 1540 nM, 300 nM, 1500 nM, 265 nM and 142 nM.
Take `C[S+]([O-])Cc1nc2ccccc2n1-c1nc(N2CCOCC2)nc(N2CCOCC2)n1` (configuration not stated): the IC50 came out at 230 nM in test [1]; 490 nM in “cells [2]”; 400 nM in the test “cells [3]”; 590 nM in test [4]; 35 nM in test [5].
The like results for `OCc1nc2ccccc2n1-c1nc(N2CCOCC2)nc(N2CCOCC2)n1` were, in that order, over 1000 nM, 5500 nM, 750 nM, over 1000 nM and 5470 nM.
For `COc1cccc2c1nc(C(F)F)n2-c1nc(N2CCOCC2)cc(N2CCOCC2)n1` the same measures were 35 nM, 30 nM, 60 nM, 5.1 nM and 18 nM.
As for `CS(=O)(=O)c1nc2ccccc2n1-c1nc(N2CCOCC2)nc(N2CCOCC2)n1`, the concentration for half-maximal inhibition (IC50) is 383 nM in test [1]; 2000 nM in the test “cells [2]”; 10000 nM in the test “cells [3]”; 203 nM in test [4]; 76 nM in test [5].
Consider `CS(=O)(=O)Oc1cccc2c1nc(C(F)F)n2-c1nc(N2CCOCC2)nc(N2CCOCC2)n1`, for which the concentration for half-maximal inhibition (IC50) is 570 nM in test [1]; 130 nM in the test “cells [2]”; 170 nM in “cells [3]”; 294 nM in test [4]; 158 nM in test [5].
The like results for `CC(C)Oc1cccc2c1nc(C(F)F)n2-c1nc(N2CCOCC2)nc(N2CCOCC2)n1` were, in that order, 2100 nM, 280 nM, 70 nM, 364 nM and 430 nM.
The like results for `FC(F)c1nc2ccccc2n1-c1nc(N2CCOCC2)cc(N2CCOCC2)n1` were, in that order, 72 nM, 260 nM, 120 nM, 30 nM and 10 nM.
For the molecule `COc1c(O)ccc2c1nc(C(F)F)n2-c1nc(N2CCOCC2)nc(N2CCOCC2)n1`, the 50% inhibitory concentration (IC50) in test [1] was found to be 94 nM; in “cells [2]” it was 11 nM; in test [5], 1.8 nM.
Consider `COc1cccc2c1nc(C(F)F)n2-c1cc(N2CCOCC2)nc(N2CCOCC2)n1`, for which the IC50 in test [1] amounted to 40 nM; in test [4], 4 nM; in test [5], 14 nM.
Regarding `CCCCOc1cccc2c1nc(C(F)F)n2-c1nc(N2CCOCC2)nc(N2CCOCC2)n1`, the half-maximal inhibitory concentration (IC50) in test [1] came to 2400 nM; in “cells [2]”, 210 nM; in the test “cells [3]”, 230 nM; in test [5], 156 nM.
`NC(=O)c1cccc2c1nc(C(F)F)n2-c1nc(N2CCOCC2)nc(N2CCOCC2)n1`: the IC50 in test [1] was over 1000 nM; in “cells [3]”, 760 nM; in test [4] it was over 1000 nM; in test [5], 1000 nM.
Turning to `Oc1cccc2c1nc(C(F)F)n2-c1nc(N2CCOCC2)cc(N2CCOCC2)n1`, the 50% inhibitory concentration (IC50) in test [1] stood at 0.81 nM; in “cells [3]”, 100 nM; in test [4] it was 1.5 nM; in test [5], 0.27 nM.

As a reminder, the IC50 is the concentration needed to halve the response being measured.

For the origin of these results see ChEMBL document CHEMBL1909493, “Synthesis and biological evaluation of novel analogues of the pan class I phosphatidylinositol 3-kinase (PI3K) inhibitor 2-(difluoromethyl)-1-[4,6-di(4-morpholinyl)-1,3,5-triazin-2-yl]-1H-benzimidazole (ZSTK474)” (J Med Chem, 2011).
